Laboratory results as given in the NIST ThermoML archive (doi:10.1021/acs.jced.8b00438).

Test: xn = mol fraction of the nth substance listed
Conditions: 100 kPa, Liquid; for viscosity: Falling or rolling sphere viscometry; for mass density: Vibrating tube method

C1CCC(C2CCCCC2)CC1 [1,1'-bicyclohexyl] + CCCCO
Conditions	mass density [kg/m3]	viscosity [mPa·s]
293.15 K, x1 = 0.1007	823.66	2.853
293.15 K, x1 = 0.2009	835.23	2.878
293.15 K, x1 = 0.3021	845.04	2.902
293.15 K, x1 = 0.4007	853.19	2.957
293.15 K, x1 = 0.5038	860.51	3.002
293.15 K, x1 = 0.5992	866.48	3.096
293.15 K, x1 = 0.7006	872.11	3.227
293.15 K, x1 = 0.7983	877.03	3.418
293.15 K, x1 = 0.8835	880.86	3.575
293.15 K, x1 = 1	886.05	4.003
298.15 K, x1 = 0.1007	819.86	2.507
298.15 K, x1 = 0.2009	831.42	2.527
298.15 K, x1 = 0.3021	841.24	2.548
298.15 K, x1 = 0.4007	849.39	2.603
298.15 K, x1 = 0.5038	856.73	2.648
298.15 K, x1 = 0.5992	862.71	2.734
298.15 K, x1 = 0.7006	868.37	2.851
298.15 K, x1 = 0.7983	873.33	3.02
298.15 K, x1 = 0.8835	877.19	3.158
298.15 K, x1 = 1	882.44	3.53
303.15 K, x1 = 0.1007	816.02	2.214
303.15 K, x1 = 0.2009	827.58	2.232
303.15 K, x1 = 0.3021	837.4	2.254
303.15 K, x1 = 0.4007	845.56	2.306
303.15 K, x1 = 0.5038	852.92	2.353
303.15 K, x1 = 0.5992	858.93	2.431
303.15 K, x1 = 0.7006	864.61	2.539
303.15 K, x1 = 0.7983	869.6	2.689
303.15 K, x1 = 0.8835	873.49	2.807
303.15 K, x1 = 1	878.84	3.137
308.15 K, x1 = 0.1007	812.14	1.963
308.15 K, x1 = 0.2009	823.71	1.982
308.15 K, x1 = 0.3021	833.53	2.006
308.15 K, x1 = 0.4007	841.7	2.054
308.15 K, x1 = 0.5038	849.08	2.102
308.15 K, x1 = 0.5992	855.12	2.179
308.15 K, x1 = 0.7006	860.84	2.273
308.15 K, x1 = 0.7983	865.87	2.411
308.15 K, x1 = 0.8835	869.8	2.513
308.15 K, x1 = 1	875.25	2.81
313.15 K, x1 = 0.1007	808.22	1.749
313.15 K, x1 = 0.2009	819.81	1.767
313.15 K, x1 = 0.3021	829.63	1.793
313.15 K, x1 = 0.4007	837.81	1.84
313.15 K, x1 = 0.5038	845.22	1.881
313.15 K, x1 = 0.5992	851.3	1.957
313.15 K, x1 = 0.7006	857.05	2.048
313.15 K, x1 = 0.7983	862.13	2.17
313.15 K, x1 = 0.8835	866.09	2.262
313.15 K, x1 = 1	871.66	2.532
318.15 K, x1 = 0.1007	804.27	1.563
318.15 K, x1 = 0.2009	815.86	1.582
318.15 K, x1 = 0.3021	825.69	1.61
318.15 K, x1 = 0.4007	833.9	1.656
318.15 K, x1 = 0.5038	841.34	1.704
318.15 K, x1 = 0.5992	847.45	1.769
318.15 K, x1 = 0.7006	853.25	1.853
318.15 K, x1 = 0.7983	858.37	1.966
318.15 K, x1 = 0.8835	862.38	2.047
318.15 K, x1 = 1	868.08	2.296
323.15 K, x1 = 0.1007	800.27	1.402
323.15 K, x1 = 0.2009	811.87	1.423
323.15 K, x1 = 0.3021	821.71	1.452
323.15 K, x1 = 0.4007	829.95	1.498
323.15 K, x1 = 0.5038	837.43	1.545
323.15 K, x1 = 0.5992	843.58	1.608
323.15 K, x1 = 0.7006	849.43	1.685
323.15 K, x1 = 0.7983	854.6	1.789
323.15 K, x1 = 0.8835	858.66	1.863
323.15 K, x1 = 1	864.5	2.092
328.15 K, x1 = 0.1007	796.21	1.263
328.15 K, x1 = 0.2009	807.82	1.285
328.15 K, x1 = 0.3021	817.69	1.315
328.15 K, x1 = 0.4007	825.97	1.36
328.15 K, x1 = 0.5038	833.49	1.407
328.15 K, x1 = 0.5992	839.69	1.466
328.15 K, x1 = 0.7006	845.59	1.54
328.15 K, x1 = 0.7983	850.82	1.635
328.15 K, x1 = 0.8835	854.93	1.702
328.15 K, x1 = 1	860.93	1.915
333.15 K, x1 = 0.1007	792.1	1.141
333.15 K, x1 = 0.2009	803.73	1.164
333.15 K, x1 = 0.3021	813.63	1.196
333.15 K, x1 = 0.4007	821.94	1.24
333.15 K, x1 = 0.5038	829.52	1.286
333.15 K, x1 = 0.5992	835.77	1.342
333.15 K, x1 = 0.7006	841.73	1.411
333.15 K, x1 = 0.7983	847.02	1.499
333.15 K, x1 = 0.8835	851.2	1.562
333.15 K, x1 = 1	857.35	1.762

C1CCC(C2CCCCC2)CC1 [1,1'-bicyclohexyl] + CCCCCCCCCCCC
Conditions	mass density [kg/m3]	viscosity [mPa·s]
293.15 K, x2 = 0	886.05	4.003
293.15 K, x2 = 0.1055	869.17	3.406
293.15 K, x2 = 0.2016	854.56	3
293.15 K, x2 = 0.3019	839.7	2.637
293.15 K, x2 = 0.398	825.91	2.369
293.15 K, x2 = 0.5006	811.71	2.166
293.15 K, x2 = 0.5953	798.95	1.998
293.15 K, x2 = 0.6911	786.49	1.839
293.15 K, x2 = 0.7985	772.97	1.697
293.15 K, x2 = 0.8888	761.97	1.62
298.15 K, x2 = 0	882.44	3.53
298.15 K, x2 = 0.1055	865.58	3.025
298.15 K, x2 = 0.2016	850.98	2.681
298.15 K, x2 = 0.3019	836.11	2.366
298.15 K, x2 = 0.398	822.33	2.136
298.15 K, x2 = 0.5006	808.14	1.955
298.15 K, x2 = 0.5953	795.38	1.811
298.15 K, x2 = 0.6911	782.91	1.672
298.15 K, x2 = 0.7985	769.38	1.548
298.15 K, x2 = 0.8888	758.37	1.466
303.15 K, x2 = 0	878.84	3.137
303.15 K, x2 = 0.1055	861.99	2.706
303.15 K, x2 = 0.2016	847.4	2.411
303.15 K, x2 = 0.3019	832.52	2.138
303.15 K, x2 = 0.398	818.74	1.938
303.15 K, x2 = 0.5006	804.55	1.777
303.15 K, x2 = 0.5953	791.78	1.652
303.15 K, x2 = 0.6911	779.31	1.529
303.15 K, x2 = 0.7985	765.77	1.417
303.15 K, x2 = 0.8888	754.75	1.331
308.15 K, x2 = 0	875.25	2.81
308.15 K, x2 = 0.1055	858.41	2.438
308.15 K, x2 = 0.2016	843.81	2.182
308.15 K, x2 = 0.3019	828.94	1.943
308.15 K, x2 = 0.398	815.15	1.766
308.15 K, x2 = 0.5006	800.96	1.624
308.15 K, x2 = 0.5953	788.19	1.513
308.15 K, x2 = 0.6911	775.71	1.405
308.15 K, x2 = 0.7985	762.15	1.305
308.15 K, x2 = 0.8888	751.13	1.223
313.15 K, x2 = 0	871.66	2.532
313.15 K, x2 = 0.1055	854.82	2.209
313.15 K, x2 = 0.2016	840.23	1.985
313.15 K, x2 = 0.3019	825.35	1.776
313.15 K, x2 = 0.398	811.56	1.618
313.15 K, x2 = 0.5006	797.36	1.492
313.15 K, x2 = 0.5953	784.58	1.393
313.15 K, x2 = 0.6911	772.09	1.298
313.15 K, x2 = 0.7985	758.53	1.206
313.15 K, x2 = 0.8888	747.5	1.131
318.15 K, x2 = 0	868.08	2.296
318.15 K, x2 = 0.1055	851.24	2.012
318.15 K, x2 = 0.2016	836.64	1.815
318.15 K, x2 = 0.3019	821.76	1.629
318.15 K, x2 = 0.398	807.96	1.489
318.15 K, x2 = 0.5006	793.76	1.377
318.15 K, x2 = 0.5953	780.98	1.288
318.15 K, x2 = 0.6911	768.48	1.203
318.15 K, x2 = 0.7985	754.91	1.119
318.15 K, x2 = 0.8888	743.86	1.05
323.15 K, x2 = 0	864.5	2.092
323.15 K, x2 = 0.1055	847.66	1.842
323.15 K, x2 = 0.2016	833.06	1.667
323.15 K, x2 = 0.3019	818.17	1.501
323.15 K, x2 = 0.398	804.36	1.376
323.15 K, x2 = 0.5006	790.16	1.275
323.15 K, x2 = 0.5953	777.36	1.195
323.15 K, x2 = 0.6911	764.85	1.119
323.15 K, x2 = 0.7985	751.27	1.041
323.15 K, x2 = 0.8888	740.21	0.978
328.15 K, x2 = 0	860.93	1.915
328.15 K, x2 = 0.1055	844.08	1.693
328.15 K, x2 = 0.2016	829.47	1.536
328.15 K, x2 = 0.3019	814.58	1.389
328.15 K, x2 = 0.398	800.76	1.276
328.15 K, x2 = 0.5006	786.54	1.184
328.15 K, x2 = 0.5953	773.74	1.112
328.15 K, x2 = 0.6911	761.22	1.043
328.15 K, x2 = 0.7985	747.63	0.973
328.15 K, x2 = 0.8888	736.56	0.914
333.15 K, x2 = 0	857.35	1.762
333.15 K, x2 = 0.1055	840.5	1.563
333.15 K, x2 = 0.2016	825.89	1.423
333.15 K, x2 = 0.3019	810.98	1.288
333.15 K, x2 = 0.398	797.16	1.186
333.15 K, x2 = 0.5006	782.93	1.104
333.15 K, x2 = 0.5953	770.11	1.039
333.15 K, x2 = 0.6911	757.59	0.976
333.15 K, x2 = 0.7985	743.98	0.91
333.15 K, x2 = 0.8888	732.9	0.856
